Molecules are shown by their SMILES. Where two headings read alike, the source gives them in different places.

Experiment [1] has as its target human TLR9 (Homo sapiens (Human), UniProt Q9NR96). In words: TLR9 inhibition reporter assay (HEK-Blue cells, SEAP reporter, ODN2006 stimulation).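 Note: compounds tested over 0.05 nM to 50 µM, 22 h incubation, inhibition taken as SEAP signal drop from agonist plus DMSO wells toward a known inhibitor control.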
Experiment [2] concerns the target human TLR7 (Homo sapiens (Human), UniProt Q9NYK1). The experiment can be described thus: TLR7 inhibition reporter assay (HEK-Blue cells, SEAP reporter, gardiquimod stimulation). It is filed as cell-based. Background: Reporter assays use an easily measured gene product as a stand-in for the process of interest.
Experiment [3] concerns the target human TLR8 (Homo sapiens (Human), UniProt Q9NR97). In words: TLR8 inhibition reporter assay (HEK-Blue cells, SEAP reporter, R848 stimulation).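 Note: compounds tested from 0.05 nM to 50 µM, 22 h at 37 °C, SEAP measured with HEK-Blue Detection, inhibition relative to agonist plus DMSO versus a known inhibitor.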
The mark [4] stands for this setting: read-out: TLR9 IC50, HEK-Blue cells, ODN2006 5 nM.
The mark [5] stands for this setting: HEK-Blue cells, gardiquimod 7.5 μM.
The mark [6] stands for this setting: read-out: TLR8 IC50, HEK-Blue cells, R848 15.9 μM.
Setting [7] is: read-out: TLR9 IC50, HEK-Blue cells overexpressing human TLR9, ODN2006 5 nM.
Setting [8] is: HEK-Blue cells overexpressing human TLR7, gardiquimod 7.5 μM.
Where [9] appears, read: read-out: TLR8 IC50, HEK-Blue cells overexpressing human TLR8, R848 15.9 μM.
Setting [10] is: TLR9 IC50, HEK-Blue cells overexpressing human TLR9, ODN2006 5 nM.
[11] abbreviates: TLR8 IC50, HEK-Blue cells overexpressing human TLR8, R848 15.9 μM.

Sequence of human TLR8 (Q9NR97 27-1041): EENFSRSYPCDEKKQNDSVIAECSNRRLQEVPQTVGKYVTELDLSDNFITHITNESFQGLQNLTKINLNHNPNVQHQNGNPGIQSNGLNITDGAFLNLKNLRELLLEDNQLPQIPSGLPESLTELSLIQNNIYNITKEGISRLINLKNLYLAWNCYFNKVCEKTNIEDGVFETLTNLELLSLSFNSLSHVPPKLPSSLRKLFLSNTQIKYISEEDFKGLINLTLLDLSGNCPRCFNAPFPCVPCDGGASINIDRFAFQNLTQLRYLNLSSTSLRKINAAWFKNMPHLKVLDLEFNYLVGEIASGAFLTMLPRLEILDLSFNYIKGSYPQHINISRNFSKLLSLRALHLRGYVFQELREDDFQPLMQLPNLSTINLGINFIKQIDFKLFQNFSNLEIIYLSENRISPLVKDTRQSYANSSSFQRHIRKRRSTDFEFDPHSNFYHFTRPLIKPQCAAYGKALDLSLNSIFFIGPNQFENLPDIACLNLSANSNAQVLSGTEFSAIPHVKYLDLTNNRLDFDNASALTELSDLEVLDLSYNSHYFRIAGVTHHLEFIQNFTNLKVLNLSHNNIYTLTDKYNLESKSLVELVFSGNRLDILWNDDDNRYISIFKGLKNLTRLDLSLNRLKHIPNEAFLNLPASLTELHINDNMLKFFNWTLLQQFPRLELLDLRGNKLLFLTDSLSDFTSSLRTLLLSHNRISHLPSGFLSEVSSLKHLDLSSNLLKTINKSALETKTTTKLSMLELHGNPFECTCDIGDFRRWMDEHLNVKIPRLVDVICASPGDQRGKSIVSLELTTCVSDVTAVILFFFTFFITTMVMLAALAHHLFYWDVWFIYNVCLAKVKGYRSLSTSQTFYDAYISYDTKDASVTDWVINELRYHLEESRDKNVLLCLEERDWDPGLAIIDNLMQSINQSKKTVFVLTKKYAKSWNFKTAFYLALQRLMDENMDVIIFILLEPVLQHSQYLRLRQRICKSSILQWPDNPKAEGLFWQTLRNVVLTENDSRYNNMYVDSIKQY
Sequence of human TLR9 (Q9NR96 26-1032): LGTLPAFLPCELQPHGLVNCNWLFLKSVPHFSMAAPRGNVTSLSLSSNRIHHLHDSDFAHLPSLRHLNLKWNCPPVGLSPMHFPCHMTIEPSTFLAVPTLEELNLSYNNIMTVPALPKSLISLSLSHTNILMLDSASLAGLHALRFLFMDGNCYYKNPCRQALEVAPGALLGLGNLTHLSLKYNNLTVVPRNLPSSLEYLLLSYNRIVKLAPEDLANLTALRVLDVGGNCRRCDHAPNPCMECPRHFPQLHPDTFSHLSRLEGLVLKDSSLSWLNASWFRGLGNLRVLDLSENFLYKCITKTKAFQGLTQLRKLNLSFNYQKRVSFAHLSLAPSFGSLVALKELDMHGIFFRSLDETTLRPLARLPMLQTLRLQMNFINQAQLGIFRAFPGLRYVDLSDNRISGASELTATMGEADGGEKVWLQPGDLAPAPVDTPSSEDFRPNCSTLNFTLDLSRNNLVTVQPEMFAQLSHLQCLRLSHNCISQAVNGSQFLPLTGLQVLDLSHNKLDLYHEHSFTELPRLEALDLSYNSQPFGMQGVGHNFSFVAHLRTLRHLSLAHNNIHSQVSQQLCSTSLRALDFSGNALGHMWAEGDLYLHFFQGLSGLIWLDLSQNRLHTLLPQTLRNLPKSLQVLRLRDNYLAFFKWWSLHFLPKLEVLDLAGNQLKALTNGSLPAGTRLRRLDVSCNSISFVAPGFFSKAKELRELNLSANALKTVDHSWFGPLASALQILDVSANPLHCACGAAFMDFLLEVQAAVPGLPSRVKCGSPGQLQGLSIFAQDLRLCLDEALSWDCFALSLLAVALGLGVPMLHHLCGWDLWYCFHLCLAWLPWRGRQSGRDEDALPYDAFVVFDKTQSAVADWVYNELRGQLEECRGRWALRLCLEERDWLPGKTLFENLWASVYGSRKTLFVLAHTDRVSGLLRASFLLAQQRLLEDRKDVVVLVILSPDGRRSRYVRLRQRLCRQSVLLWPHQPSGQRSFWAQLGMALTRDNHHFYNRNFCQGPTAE
Sequence of human TLR7 (Q9NYK1 27-1049): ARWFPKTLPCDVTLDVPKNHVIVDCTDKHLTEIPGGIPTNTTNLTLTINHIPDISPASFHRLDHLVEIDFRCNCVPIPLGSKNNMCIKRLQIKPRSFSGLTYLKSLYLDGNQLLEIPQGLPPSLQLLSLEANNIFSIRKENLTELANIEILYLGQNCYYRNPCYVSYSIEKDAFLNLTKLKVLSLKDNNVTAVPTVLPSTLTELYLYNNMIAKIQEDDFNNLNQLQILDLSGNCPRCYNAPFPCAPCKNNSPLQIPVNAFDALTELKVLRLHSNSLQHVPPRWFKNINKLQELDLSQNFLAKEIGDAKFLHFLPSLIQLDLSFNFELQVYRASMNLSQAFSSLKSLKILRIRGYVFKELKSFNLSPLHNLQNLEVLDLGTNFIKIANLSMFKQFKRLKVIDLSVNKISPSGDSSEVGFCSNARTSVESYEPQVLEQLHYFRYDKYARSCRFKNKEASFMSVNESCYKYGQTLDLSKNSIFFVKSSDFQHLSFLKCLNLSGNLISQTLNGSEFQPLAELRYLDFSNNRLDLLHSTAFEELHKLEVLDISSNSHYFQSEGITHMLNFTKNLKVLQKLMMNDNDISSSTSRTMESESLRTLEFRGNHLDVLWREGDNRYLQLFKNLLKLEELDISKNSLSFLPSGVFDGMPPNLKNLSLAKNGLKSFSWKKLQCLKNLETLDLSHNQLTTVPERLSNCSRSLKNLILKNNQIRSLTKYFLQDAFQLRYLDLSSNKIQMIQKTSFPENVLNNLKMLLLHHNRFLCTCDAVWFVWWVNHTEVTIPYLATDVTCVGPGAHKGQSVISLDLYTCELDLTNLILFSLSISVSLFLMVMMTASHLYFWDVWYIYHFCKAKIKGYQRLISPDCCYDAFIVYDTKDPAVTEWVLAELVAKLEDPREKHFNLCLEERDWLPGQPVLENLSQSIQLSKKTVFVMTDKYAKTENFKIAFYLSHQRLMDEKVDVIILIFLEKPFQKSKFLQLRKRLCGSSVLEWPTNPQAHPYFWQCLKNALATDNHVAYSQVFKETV

On to `CC(=O)N1CCC(N2CCC(c3ccc4[nH]c(-c5ccnc(C)c5)c(C(C)C)c4c3)CC2)CC1` [Example 827, 1-(4-(3-isopropyl-2-(2-methylpyridin-4-yl)-1H-indol-5-yl)-[1,4′-bipiperidin]-1′-yl)ethan-1-one], for which the IC50 came out at 753 nM in experiment [1] (setting [4]), 12.7 nM in experiment [2] (setting [5]) and 5.2 nM in experiment [3] (setting [6]).

On to `Cc1cc(-c2[nH]c3ccc(C4CCN(C(=O)C5CCN(Cc6ccccc6)C5)CC4)cc3c2C(C)C)ccn1` (stereo not drawn) [Example 575, (1-benzylpyrrolidin-3-yl)(4-(3-isopropyl-2-(2-methylpyridin-4-yl)-1H-indol-5-yl)piperidin-1-yl)methanone], for which the results for the IC50 in experiment [1] (setting [7]), in experiment [2] (setting [8]) and in experiment [3] (setting [9]) were 1060 nM, 34 nM and 18.5 nM, respectively.

With `CCc1c(-c2ccnc(C)c2)[nH]c2ccc(C3CCN(C(=O)C4CCNC4)CC3)cc12` (stereo not drawn) [Example 633, (4-(3-ethyl-2-(2-methylpyridin-4-yl)-1H-indol-5-yl)piperidin-1-yl)(pyrrolidin-3-yl)methanone], the IC50 in experiment [1] (setting [7]) was determined as 311 nM; in experiment [2] (setting [8]), 39 nM; in experiment [3] (setting [9]) it was 83.3 nM.

Take `Cc1cc(-c2[nH]c3ccc(C4CCN(C(=O)CNCC(C)(C)N5CCOCC5)CC4)cc3c2C(C)C)cc(C)n1` [Example 371, 1-(4-(2-(2,6-dimethylpyridin-4-yl)-3-isopropyl-1H-indol-5-yl)piperidin-1-yl)-2-((2-methyl-2-morpholinopropyl)amino)ethan-1-one]: the IC50 in experiment [1] (setting [10]) came out at 241 nM; in experiment [2] (setting [8]) it was 3.7 nM; in experiment [3] (setting [11]), 20.4 nM.

Turning to `CCc1c(-c2ccnc(C)c2)[nH]c2ccc(C3CCN(CCC(F)(F)F)CC3)cc12` [Example 863, 3-ethyl-2-(2-methylpyridin-4-yl)-5-(1-(3,3,3-trifluoropropyl)piperidin-4-yl)-1H-indole], the IC50 worked out at 2450 nM in experiment [1] (setting [4]), 469 nM in experiment [2] (setting [5]) and 53 nM in experiment [3] (setting [6]).

With `Cc1cc(-c2[nH]c3ccc(C4CCN(S(C)(=O)=O)CC4)cc3c2C(C)C)ccn1` [Example 550, 3-isopropyl-2-(2-methylpyridin-4-yl)-5-(1-(methylsulfonyl)piperidin-4-yl)-1H-indole], the IC50 was greater than 50000 nM in experiment [1] (setting [7]), 39 nM in experiment [2] (setting [8]) and 162 nM in experiment [3] (setting [9]).

Take `Cc1cc(-c2[nH]c3ccc(C4CCN(C(=O)Cc5cc(N)n[nH]5)CC4)cc3c2C(C)C)cc(C)n1` [Example 139, 2-(3-amino-1H-pyrazol-5-yl)-1-(4-(2-(2,6-dimethylpyridin-4-yl)-3-isopropyl-1H-indol-5-yl)piperidin-1-yl)ethan-1-one]: the IC50 in experiment [1] (setting [10]) turned out to be 8860 nM; in experiment [2] (setting [8]) it was 5.7 nM; in experiment [3] (setting [11]), 47.7 nM.

As to `CCc1c(-c2ccncc2)[nH]c2ccc(C3CCN(C4CCN(C(C)C)CC4)CC3)cc12` [Example 804, 3-ethyl-5-(1′-isopropyl-[1,4′-bipiperidin]-4-yl)-2-(pyridin-4-yl)-1H-indole], the IC50 in experiment [1] (setting [7]) worked out at 82 nM; in experiment [2] (setting [8]), 212 nM; in experiment [3] (setting [9]), 11.2 nM.

For `Cc1cc(-c2[nH]c3ccc(C4CCN(C(=O)CN(C)C5CC5)CC4)cc3c2C(C)C)cc(C)n1` [Example 357, 2-(cyclopropyl(methyl)amino)-1-(4-(2-(2,6-dimethylpyridin-4-yl)-3-isopropyl-1H-indol-5-yl)piperidin-1-yl)ethan-1-one], the IC50 was 2350 nM in experiment [1] (setting [7]), 13.9 nM in experiment [2] (setting [8]) and 104 nM in experiment [3] (setting [9]).

On to `Cc1cc(-c2[nH]c3ccc(C4CCN(C5CCCOC5)CC4)cc3c2C(C)C)ccn1` (stereo not drawn) [Example 718, 3-isopropyl-2-(2-methylpyridin-4-yl)-5-(1-(tetrahydro-2H-pyran-3-yl)piperidin-4-yl)-1H-indole], for which the half-maximal inhibitory concentration (IC50) in experiment [1] (setting [7]) is 855 nM; in experiment [2] (setting [8]) it was 22.8 nM; in experiment [3] (setting [9]), 6.1 nM.

In the case of `Cc1cc(-c2[nH]c3ccc(C4CCN(CC(=O)NCC(F)(F)F)CC4)cc3c2C(C)C)cc(C)n1` [Example 214, 2-(4-(2-(2,6-dimethylpyridin-4-yl)-3-isopropyl-1H-indol-5-yl)piperidin-1-yl)-N-(2,2,2-trifluoroethyl)acetamide], the IC50 in experiment [1] (setting [7]) came to 1220 nM; in experiment [2] (setting [8]) it was 6.2 nM; in experiment [3] (setting [9]), 12.8 nM.

As for `Cc1cc(-c2[nH]c3ccc(C4CCN(CCC(N)=O)CC4)cc3c2C(C)C)cc(C)n1` [Example 314, 3-(4-(2-(2,6-dimethylpyridin-4-yl)-3-isopropyl-1H-indol-5-yl)piperidin-1-yl)propanamide], the IC50 in experiment [1] (setting [7]) stood at 147 nM; in experiment [2] (setting [8]), 1.4 nM; in experiment [3] (setting [9]), 3.2 nM.

In the case of `Cc1cc(-c2[nH]c3ccc(C4CCN(CC5CC5)CC4)cc3c2C(C)C)c(C)cn1` [Example 871, 5-(1-(cyclopropylmethyl)piperidin-4-yl)-2-(2,5-dimethylpyridin-4-yl)-3-isopropyl-1H-indole], the IC50 in experiment [1] (setting [4]) stood at 1840 nM; in experiment [2] (setting [5]), 10 nM; in experiment [3] (setting [6]), 3.2 nM.

Regarding `Cc1cc(-c2[nH]c3ccc(C4CCN(Cc5cc(C)on5)CC4)cc3c2C(C)C)cc(C)n1` [Example 443, 3-((4-(2-(2,6-dimethylpyridin-4-yl)-3-isopropyl-1H-indol-5-yl)piperidin-1-yl)methyl)-5-methylisoxazole], the IC50 in experiment [1] (setting [7]) was determined as 1680 nM; in experiment [2] (setting [8]) it was 22.9 nM; in experiment [3] (setting [9]) it was 10.9 nM.

Take `COc1cc(-c2[nH]c3ccc(C4CCN(C5CCOCC5)CC4)cc3c2C(C)C)ccn1` [Example 720, 3-isopropyl-2-(2-methoxypyridin-4-yl)-5-(1-(tetrahydro-2H-pyran-4-yl)piperidin-4-yl)-1H-indole]: the IC50 in experiment [1] (setting [7]) worked out at 2900 nM; in experiment [2] (setting [8]) it was 51 nM; in experiment [3] (setting [9]), 82.5 nM.

As for `Cc1cc(-c2[nH]c3ccc(C4CCN(C(=O)[C@@H](N)CCCN)CC4)cc3c2C(C)C)ccn1` [Example 577, (S)-2,5-diamino-1-(4-(3-isopropyl-2-(2-methylpyridin-4-yl)-1H-indol-5-yl)piperidin-1-yl)pentan-1-one], the IC50 in experiment [1] (setting [7]) is 8130 nM; in experiment [2] (setting [8]) it was 121 nM; in experiment [3] (setting [9]), 58.4 nM.

`CC(C)c1c(-c2ccnc(N)c2)[nH]c2ccc(C3CCN(C(=O)C4CCNCC4)CC3)cc12` [Example 819, (4-(2-(2-aminopyridin-4-yl)-3-isopropyl-1H-indol-5-yl)piperidin-1-yl)(piperidin-4-yl)methanone]: the IC50 was determined as 712 nM in experiment [1] (setting [4]), 415 nM in experiment [2] (setting [5]) and 588 nM in experiment [3] (setting [6]).

For `Cc1cc(-c2[nH]c3ccc(C4CCN(Cc5ccn[nH]5)CC4)cc3c2C(C)C)cc(C)n1` [Example 441, 5-(1-((1H-pyrazol-5-yl)methyl)piperidin-4-yl)-2-(2,6-dimethylpyridin-4-yl)-3-isopropyl-1H-indole], the IC50 in experiment [1] (setting [7]) turned out to be 303 nM; in experiment [2] (setting [8]), 1.6 nM; in experiment [3] (setting [9]), 1.7 nM.

For `Cc1cc(-c2[nH]c3ccc(C4CCN(C(=O)C(C)C)CC4)cc3c2C(C)C)ccn1` [Example 602, 1-(4-(3-isopropyl-2-(2-methylpyridin-4-yl)-1H-indol-5-yl)piperidin-1-yl)-2-methylpropan-1-one], the IC50 in experiment [1] (setting [7]) came to 32000 nM; in experiment [2] (setting [8]) it was 24.7 nM; in experiment [3] (setting [9]), 158 nM.

As for `Cc1cc(-c2[nH]c3ccc(C4CCN(C(=O)[C@@H](N)CCCNC(N)=O)CC4)cc3c2C(C)C)ccn1` [Example 564, (S)-1-(4-amino-5-(4-(3-isopropyl-2-(2-methylpyridin-4-yl)-1H-indol-5-yl)piperidin-1-yl)-5-oxopentyl)urea], the IC50 in experiment [1] (setting [7]) was determined as 6560 nM; in experiment [2] (setting [8]) it was 202 nM; in experiment [3] (setting [9]), 80.1 nM.

`Cc1cc(-c2[nH]c3ccc(C4CCN(CC(=O)N5CCCC(F)(F)C5)CC4)cc3c2C(C)C)cc(C)n1` [Example 285, 1-(3,3-difluoropiperidin-1-yl)-2-(4-(2-(2,6-dimethylpyridin-4-yl)-3-isopropyl-1H-indol-5-yl)piperidin-1-yl)ethan-1-one]: the IC50 in experiment [1] (setting [7]) was determined as 423 nM; in experiment [2] (setting [8]), 4 nM; in experiment [3] (setting [9]) it was 13.9 nM.

As to `Cc1cc(-c2[nH]c3ccc(C4CCN(C(=O)CN5CCN(C)CC5)CC4)cc3c2C(C)C)cc(C)n1` [Example 163, 1-(4-(2-(2,6-dimethylpyridin-4-yl)-3-isopropyl-1H-indol-5-yl)piperidin-1-yl)-2-(4-methylpiperazin-1-yl)ethan-1-one], the IC50 in experiment [1] (setting [7]) turned out to be 778 nM; in experiment [2] (setting [8]) it was 0.9 nM; in experiment [3] (setting [9]) it was 8.4 nM.

As for `Cc1cc(-c2[nH]c3ccc(C4CCN(CC(C)(C)O)CC4)cc3c2C(C)C)c(C)cn1` [Example 851, 1-(4-(2-(2,5-dimethylpyridin-4-yl)-3-isopropyl-1H-indol-5-yl)piperidin-1-yl)-2-methylpropan-2-ol], the results for the IC50 in experiment [1] (setting [4]), in experiment [2] (setting [5]) and in experiment [3] (setting [6]) were 1690 nM, 10.4 nM and 0.7 nM, respectively.

For the compound `Cc1ccc(OC(=O)N2CCC(c3ccc4[nH]c(-c5ccnc(C)c5)c(C(C)C)c4c3)CC2)cc1` [Example 557, p-Tolyl 4-(3-isopropyl-2-(2-methylpyridin-4-yl)-1H-indol-5-yl)piperidine-1-carboxylate], the results for the IC50 in experiment [1] (setting [7]), in experiment [2] (setting [8]) and in experiment [3] (setting [9]) were 6040 nM, 1530 nM and 3250 nM, respectively.

Turning to `COc1ncc(CN2CCC(c3ccc4[nH]c(-c5cc(C)nc(C)c5)c(C(C)C)c4c3)CC2)cn1` [Example 430, 2-(2,6-dimethylpyridin-4-yl)-3-isopropyl-5-(1-((2-methoxypyrimidin-5-yl)methyl)piperidin-4-yl)-1H-indole], the IC50 stood at 369 nM in experiment [1] (setting [7]), 10.1 nM in experiment [2] (setting [8]) and 5.9 nM in experiment [3] (setting [9]).

For orientation: IC50 means the concentration that inhibits the measured activity by half.

These data come from patent publication US10660877B2 (BRISTOL-MYERS SQUIBB COMPANY, priority 2016, dated 2020).
